Calls of active or inactive are those of the source. The rule behind the calls is not given here.
What was measured:
[1] = Drug localization in HEK293T cells overexpressing mCherry-fused alpha-synuclein (unknown origin) assessed as puncta formation of alpha-synuclein at 50 uM incubated for 2 hrs by LyTG staining based confocal laser scanning microscopy; format: ADME, cell-based; details: human, hek-293t
[2] = target: T1, Microtubule-associated protein 1 light chain 3 beta (Homo sapiens, UniProt Q9GZQ8); test: Binding affinity to LC3B in HEK293T cells overexpressing alpha-synuclein (unknown origin) at 50 to 100 uM incubated for 4 hrs by co-IP assay; format: cell-based; details: dose 50-100 µM
[3] = test system: Mus musculus; test: Downregulation of phosphorylated alpha-synuclein at S129 residue level in substantia nigra pars compacta of MPTP-treated C57BL/6 mouse at 50 mg/kg/day, iv treated for 5 days by immunoblot analysis; format: functional, organism-based; details: time 5.0 day
[4] = target: T2, Alpha-synuclein (Homo sapiens, UniProt P37840); test: Induction of alpha-synuclein (unknown origin) degradation overexpressed in HEK293T cells pretreated with BafA1 at 50 uM incubated for 24 hrs by immunoblot analysis; format: cell-based
[5] = test system: HEK-293T; test: Downregulation of DLST expression in HEK293T cells at 100 uM incubated for 24 hrs by proteomic profiling analysis; format: functional, cell-based; details: Homo sapiens
[6] = test system: HEK-293T; test: Downregulation of UBE2L3 expression in HEK293T cells at 100 uM incubated for 24 hrs by proteomic profiling analysis; format: functional, cell-based; details: Homo sapiens
[7] = test system: SH-SY5Y; test: Cytotoxicity against wild-type human SH-SY5Y cells assessed as cell viability upto 200 uM incubated for 24 hrs by CCK8 assay; format: functional, cell-based
[8] = test system: SH-SY5Y; test: Cytoprotective activity in human SH-SY5Y cells transfected with alpha-synuclein (unknown origin) assessed as viable cells at 100 uM measured after 24 hrs by […] based flow cytometry (reference value: 28.5 %); format: functional; details: read-out: Activity
[9] = test system: Mus musculus; test: Downregulation of phosphorylated alpha-synuclein at S129 residue level in substantia nigra pars compacta of MPTP-treated C57BL/6 mouse at 50 mg/kg/day, iv treated for 5 days by IHC analysis; format: functional, organism-based; details: time 5.0 day
[10] = target: T2, Alpha-synuclein; test: Induction of alpha-synuclein (unknown origin) degradation overexpressed in HEK293T cells at 50 uM incubated for 24 hrs in presence of MG132 by immunoblot analysis; format: cell-based
[11] = test system: HEK-293T; test: Downregulation of AGPS expression in HEK293T cells at 100 uM incubated for 24 hrs by proteomic profiling analysis; format: functional, cell-based; details: Homo sapiens
[12] = test system: HEK-293T; test: Downregulation of SNCA expression in HEK293T cells at 100 uM incubated for 24 hrs by proteomic profiling analysis; format: functional, cell-based; details: Homo sapiens
[13] = target: T1, Microtubule-associated protein 1 light chain 3 beta; test: Induction of LC3B-mediated autophagy flux in HEK293T cells overexpressing alpha-synuclein (unknown origin) cotransfected with adenovirus-packaged plasmid encoding mCherry-EGFP-fused LC3B assessed as increase in number of autolysosomes incubated for 4 hrs by confocal laser scanning microscopy; format: cell-based; details: dose <= 100.0 µM
[14] = test system: HEK-293T; test: Downregulation of EIF4H expression in HEK293T cells at 100 uM incubated for 24 hrs by proteomic profiling analysis; format: functional, cell-based; details: Homo sapiens
[15] = Toxicity in C57BL/6 mouse assessed as change in LDH1 level at 50 to 200 mg/kg/day treated for 5 days; format: organism-based; details: in vivo, 120 h, dose 50-200 mg/kg/day, time 5 day
[16] = Drug localization in HEK293T cells overexpressing mCherry-fused alpha-synuclein (unknown origin) assessed as colocalization of autophagosomes at 50 uM incubated for 2 hrs by MDC staining based confocal laser scanning microscopy; format: ADME, cell-based; details: human, hek-293t
[17] = Toxicity in C57BL/6 mouse assessed as lethargy at 50 to 200 mg/kg/day treated for 5 days; format: organism-based; details: in vivo, 120 h, dose 50-200 mg/kg/day, time 5 day
[18] = target: T2, Alpha-synuclein; test: Binding affinity to alpha-synuclein (unknown origin) overexpressed in HEK293T cells assessed as shift in denaturation at 50 uM incubated for 4 hrs followed by heating at 40 to 75 degreeC for 3 mins by CETSA assay; format: cell-based; details: time 243.0 min
[19] = Toxicity in C57BL/6 mouse assessed as histological change in heart at 50 to 200 mg/kg/day treated for 5 days by H and E staining based analysis; format: organism-based; details: in vivo, 120 h, dose 50-200 mg/kg/day, time 5 day
[20] = Drug localization in HEK293T cells overexpressing mCherry-fused alpha-synuclein (unknown origin) assessed as puncta formation of alpha-synuclein at 50 uM incubated for 2 hrs by MDC staining based confocal laser scanning microscopy; format: ADME, cell-based; details: human, hek-293t
[21] = Toxicity in C57BL/6 mouse assessed as change in cardiac electrophysiology at 50 to 100 mg/kg/day treated for 5 days by ECG analysis; format: organism-based; details: in vivo, 120 h, dose 50-100 mg/kg/day, time 5 day
[22] = test system: Mus musculus; test: Neuroprotective activity in MPTP-induced cognitive impairment in C57BL/6 mouse assessed as decrease in mean speed in navigation trial phase at 50 mg/kg/day, iv treated for 5 days measured after 5 to 8 days days by morris water maze test; format: functional, organism-based; details: time 10-13 day
[23] = test system: HEK-293T; test: Downregulation of SQSTM1 expression in HEK293T cells at 100 uM incubated for 24 hrs by proteomic profiling analysis; format: functional, cell-based; details: Homo sapiens
[24] = test system: SH-SY5Y; test: Cytoprotective activity in human SH-SY5Y cells transfected with alpha-synuclein (unknown origin) assessed as cell viability at 100 uM by CCK8 assay relative to control; format: functional; details: read-out: Activity
[25] = Toxicity in C57BL/6 mouse assessed as change in creatine kinase level at 50 to 200 mg/kg/day treated for 5 days; format: organism-based; details: in vivo, 120 h, dose 50-200 mg/kg/day, time 5 day
[26] = test system: Mus musculus; test: Neuroprotective activity in MPTP-induced cognitive impairment in C57BL/6 mouse assessed as increase in time spent in target quadrant in probe trial phase at 50 mg/kg/day, iv treated for 5 days measured after 5 to 8 days days by morris water maze test; format: functional, organism-based; details: time 10-13 day
[27] = Toxicity in C57BL/6 mouse assessed as depression in ST segment of cardiac electrophysiology at 200 mg/kg/day treated for 5 days by ECG analysis; format: organism-based; details: in vivo, 120 h, time 5 day
[28] = test system: HEK-293T; test: Downregulation of NACA expression in HEK293T cells at 100 uM incubated for 24 hrs by proteomic profiling analysis; format: functional, cell-based; details: Homo sapiens
[29] = target: T1, Microtubule-associated protein 1 light chain 3 beta; test: Binding affinity to biotinylated recombinant LC3B (unknown origin) assessed as dissociation constant by BLI assay
[30] = test system: HEK-293T; test: Downregulation of SMAP expression in HEK293T cells at 100 uM incubated for 24 hrs by proteomic profiling analysis; format: functional, cell-based; details: Homo sapiens
[31] = target: T2, Alpha-synuclein; test: Binding affinity to biotinylated recombinant alpha-synuclein (unknown origin) assessed as dissociation constant by BLI assay
[32] = test system: HEK-293T; test: Downregulation of NME1 expression in HEK293T cells at 100 uM incubated for 24 hrs by proteomic profiling analysis; format: functional, cell-based; details: Homo sapiens

CC(C)C[C@H](NC(=O)[C@H](Cc1c[nH]cn1)NC(=O)[C@@H](NC(=O)[C@H](Cc1c[nH]c2ccccc12)NC(=O)[C@H](CC(=O)O)NC(=O)[C@H](CC(=O)O)NC(=O)[C@H](CC(=O)O)NC(=O)CNC(=O)CNC(=O)[C@H](CO)NC(=O)[C@H](CO)NC(=O)CNC(=O)[C@H](CO)NC(=O)CNC(=O)[C@H](CCCNC(=N)N)NC(=O)[C@@H](NC(=O)[C@H](CCCCN)NC(=O)[C@H](CO)NC(=O)CNC(=O)[C@@H](NC(=O)[C@H](Cc1ccc(O)cc1)NC(=O)[C@H](CC(C)C)NC(=O)[C@@H](NC(=O)CN)C(C)C)C(C)C)[C@H](C)O)[C@@H](C)O)C(=O)N[C@@H](CO)C(=O)N[C@@H](CO)C(=O)N[C@@H](Cc1ccc(O)cc1)C(=O)NCC(=O)N[C@@H](CCCNC(=N)N)C(=O)N[C@@H](CCCCN)C(=O)N[C@@H](CCCCN)C(=O)N[C@@H](CCCNC(=N)N)C(=O)N[C@@H](CCCNC(=N)N)C(=O)N[C@@H](CCC(N)=O)C(=O)N[C@@H](CCCNC(=N)N)C(=O)N[C@@H](CCCNC(=N)N)C(=O)N[C@@H](CCCNC(=N)N)C(=O)O
Drug uptake [1]: Active | Activity [2]: Active | Activity [3]: Active | Activity [4]: inactive | Activity [5]: Active | Activity [6]: Active | Activity [7]: inactive | viability at 100 µM [8]: 15.5% | Activity [9]: Active | Activity [10]: Active | Activity [11]: Active | Activity [12]: Active | Activity [13]: Dose-Dependent Effect | Activity [14]: Active | Activity [15]: Non-Toxic | Drug uptake [16]: Active | Activity [17]: Non-Toxic | Activity [18]: Active | Activity [19]: Non-Toxic | Drug uptake [20]: Active | Activity [21]: Non-Toxic | Activity [22]: Active | Activity [23]: Active | viability at 100 µM [24]: 94.9% | Activity [25]: Non-Toxic | Activity [26]: Active | Activity [27]: Toxic | Activity [28]: Active | Kd [29]: 14.9 µM | Activity [30]: Active | Kd [31]: 8.83 µM | Activity [32]: Active

From ChEMBL document CHEMBL5321295, “Targeted Degradation of Alpha-Synuclein by Autophagosome-Anchoring Chimera Peptides” (J Med Chem, 2023)
